Test results reported in US8399681B2, “Substituted aminothiazolone indazoles as estrogen related receptor-alpha modulators” (Janssen Pharmaceutica NV, priority 2009, dated 2013).

These compounds were tested against T1, ERR1 (also known as ERR-α or ERR-1) (Homo sapiens, UniProt P11474) (assay: TR-FRET assay (disruption of co-activator peptide binding)). Conditions: 6His-tagged ERR1 LBD, GST-hSRC2 co-activator polypeptide; average of 3 independent experiments.
T1 sequence (P11474 193-421 limits assumed): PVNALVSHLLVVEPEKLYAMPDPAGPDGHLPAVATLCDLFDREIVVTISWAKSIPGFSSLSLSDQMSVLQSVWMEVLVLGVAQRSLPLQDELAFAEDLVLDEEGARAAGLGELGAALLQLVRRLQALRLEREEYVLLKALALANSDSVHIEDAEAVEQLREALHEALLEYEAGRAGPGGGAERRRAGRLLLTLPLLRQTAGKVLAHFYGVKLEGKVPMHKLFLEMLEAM
Type: biochemical
Procedure, shortened: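 His6-ERR1 LBD (6 nM) with GST-SRC-2 peptide (6 nM), anti-GST Eu cryptate (30 nM) and anti-His XL665 (7.5 nM) in Tris pH 8/KCl/DTT/BSA buffer, equilibrated 4-18 h at 25 °C. Ex 340, em 615/665 nm; hyperbolic dose-response fit, mean of 3 experiments.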

Going from `O=C1CN(C2=NC(=O)/C(=C/c3ccc4c(cnn4Cc4ccc(Cl)cc4C(F)(F)F)c3)S2)C1` [Example 102, 5-[1-(4-Chloro-2-trifluoromethyl-benzyl)-1H-indazol-5-ylmethylene]-2-(3-oxo-azetidin-1-yl)-thiazol-4-one] to `COC1CN(C2=NC(=O)/C(=C/c3ccc4c(cnn4Cc4ccc(Cl)cc4C(F)(F)F)c3)S2)C1` [Example 113, 5-[1-(4-Chloro-2-trifluoromethyl-benzyl)-1H-indazol-5-ylmethylene]-2-(3-methoxy-azetidin-1-yl)-thiazol-4-one], the EC50 falls from 22 nM to 14 nM (1.6-fold). The second is the more potent here.

First: CN1C2CCC1CN(C1=NC(=O)/C(=C/c3ccc4c(cnn4Cc4ccc(C(F)(F)F)cc4C(F)(F)F)c3)S1)C2 [Example 103, 5-[1-(2,4-Bis-trifluoromethyl-benzyl)-1H-indazol-5-ylmethylene]-2-(8-methyl-3,8-diaza-bicyclo[3.2.1]oct-3-yl)-thiazol-4-one]
Second: O=C1N=C(N2CCN(C3CC3)CC2)S/C1=C\c1ccc2c(cnn2Cc2ccc(C(F)(F)F)cc2C(F)(F)F)c1 [Example 122, 5-[1-(2,4-Bis-trifluoromethyl-benzyl)-1H-indazol-5-ylmethylene]-2-(4-cyclopropyl-piperazin-1-yl)-thiazol-4-one]
The EC50 of the first is 3.4-fold lower: 12.2 nM for the first, 41.8 nM for the second. The first is the more potent here.

Compared with `O=C1N=C(N2CCNC[C@@H]2CO)S/C1=C\c1ccc2c(cnn2Cc2ccc(C(F)(F)F)cc2C(F)(F)F)c1` [Example 104, 5-[1-(2,4-Bis-trifluoromethyl-benzyl)-1H-indazol-5-ylmethylene]-2-(2-hydroxymethyl-piperazin-1-yl)-thiazol-4-one], `O=C1N=C(N2CCNC[C@@H]2CO)S/C1=C\c1ccc2c(cnn2Cc2ccc(Cl)cc2C(F)(F)F)c1` [Example 105, 5-[1-(4-Chloro-2-trifluoromethyl-benzyl)-1H-indazol-5-ylmethylene]-2-(2-hydroxymethyl-piperazin-1-yl)-thiazol-4-one] is 2.2-fold higher in EC50: 18.2 nM for the first, 40.9 nM for the second. The first is the more potent here.

`NC(=O)C1CCN(C2=NC(=O)/C(=C/c3ccc4c(cnn4Cc4ccc(C(F)(F)F)cc4C(F)(F)F)c3)S2)CC1` [Example 106, 1-{5-[1-(2,4-Bis-trifluoromethyl-benzyl)-1H-indazol-5-ylmethylene]-4-oxo-4,5-dihydro-thiazol-2-yl}-piperidine-4-carboxylic acid amide] and `CC(=O)NC1CCN(C2=NC(=O)/C(=C/c3ccc4c(cnn4Cc4ccc(C(F)(F)F)cc4C(F)(F)F)c3)S2)CC1` [Example 108, N-(1-{5-[1-(2,4-Bis-trifluoromethyl-benzyl)-1H-indazol-5-ylmethylene]-4-oxo-4,5-dihydro-thiazol-2-yl}-piperidin-4-yl)-acetamide] are within 1.5-fold of each other in EC50: 21 nM for the first, 30.2 nM for the second.

First: O=C1N=C(N2CCC(c3nnn[nH]3)CC2)S/C1=C\c1ccc2c(cnn2Cc2ccc(C(F)(F)F)cc2C(F)(F)F)c1 [Example 109, 5-[1-(2,4-Bis-trifluoromethyl-benzyl)-1H-indazol-5-ylmethylene]-2-[4-(1H-tetrazol-5-yl)piperidin-1-yl]-thiazol-4-one]
Second: O=C1N=C(N2CCC(c3nnn[nH]3)CC2)S/C1=C\c1ccc2c(cnn2Cc2ccc(Cl)cc2C(F)(F)F)c1 [Example 110, 5-[1-(4-Chloro-2-trifluoromethyl-benzyl)-1H-indazol-5-ylmethylene]-2-[4-(1H-tetrazol-5-yl)-piperidin-1-yl]-thiazol-4-one]
The EC50 of the first is 1.9-fold higher: 36 nM for the first, 18.6 nM for the second. The second is the more potent here.

Compared with `CS(=O)(=O)NC1CCN(C2=NC(=O)/C(=C/c3ccc4c(cnn4Cc4ccc(Cl)cc4C(F)(F)F)c3)S2)CC1` [Example 111, N-(1-{5-[1-(4-Chloro-2-trifluoromethyl-benzyl)-1H-indazol-5-ylmethylene]-4-oxo-4,5-dihydro-thiazol-2-yl}-piperidin-4-yl)-methanesulfonamide], `CS(=O)(=O)NC1CCN(C2=NC(=O)/C(=C/c3ccc4c(cnn4Cc4ccc(C(F)(F)F)cc4C(F)(F)F)c3)S2)CC1` [Example 120, N-(1-{5-[1-(2,4-Bis-trifluoromethyl-benzyl)-1H-indazol-5-ylmethylene]-4-oxo-4,5-dihydro-thiazol-2-yl}-piperidin-4-yl)-methanesulfonamide] is 3.9-fold higher in EC50: 6.9 nM for the first, 27 nM for the second. The first is the more potent here.

`COC1CCN(C2=NC(=O)/C(=C/c3ccc4c(cnn4Cc4ccc(Cl)cc4C(F)(F)F)c3)S2)CC1` [Example 112, 5-[1-(4-Chloro-2-trifluoromethyl-benzyl)-1H-indazol-5-ylmethylene]-2-(4-methoxy-piperidin-1-yl)-thiazol-4-one] and `COC(=O)COC1CCN(C2=NC(=O)/C(=C/c3ccc4c(cnn4Cc4ccc(Cl)cc4C(F)(F)F)c3)S2)CC1` [Example 130] are within 1.5-fold of each other in EC50: 29 nM for the first, 32 nM for the second.

Going from `O=C1CCN(C2=NC(=O)/C(=C/c3ccc4c(cnn4Cc4ccc(Cl)cc4C(F)(F)F)c3)S2)CCN1` [Example 114, 1-{5-[1-(4-Chloro-2-trifluoromethyl-benzyl)-1H-indazol-5-ylmethylene]-4-oxo-4,5-dihydro-thiazol-2-yl}-[1,4]diazepan-5-one] to `O=C1CCN(C2=NC(=O)/C(=C/c3ccc4c(cnn4Cc4ccc(C(F)(F)F)cc4C(F)(F)F)c3)S2)CCN1` [Example 118, 1-{5-[1-(2,4-Bis-trifluoromethyl-benzyl)-1H-indazol-5-ylmethylene]-4-oxo-4,5-dihydro-thiazol-2-yl}-[1,4]diazepan-5-one], the EC50 falls from 13 nM to 7.3 nM (1.8-fold). The second is the more potent here.

Going from `O=C(O)CN1CCN(C2=NC(=O)/C(=C/c3ccc4c(cnn4Cc4ccc(Cl)cc4C(F)(F)F)c3)S2)CC1` [Example 117] to `CCOC(=O)CN1CCN(C2=NC(=O)/C(=C/c3ccc4c(cnn4Cc4ccc(Cl)cc4C(F)(F)F)c3)S2)CC1` [Example 127], the EC50 rises from 8.3 nM to 29 nM (3.5-fold). The first is the more potent here.

Going from `O=C(O)CN1CCN(C2=NC(=O)/C(=C/c3ccc4c(cnn4Cc4ccc(C(F)(F)F)cc4C(F)(F)F)c3)S2)CC1` [Example 119] to `CCOC(=O)N1CCCN(C2=NC(=O)/C(=C/c3ccc4c(cnn4Cc4ccc(C(F)(F)F)cc4C(F)(F)F)c3)S2)CC1` [Example 129, 4-{5-[1-(2,4-Bis-trifluoromethyl-benzyl)-1H-indazol-5-ylmethylene]-4-oxo-4,5-dihydro-thiazol-2-yl}-[1,4]diazepane-1-carboxylic acid ethyl ester], the EC50 rises from 14 nM to 28 nM (2-fold). The first is the more potent here.

Compared with `O=C1N=C(N2CCN(C3CC3)CC2)S/C1=C\c1ccc2c(cnn2Cc2ccc(Cl)cc2C(F)(F)F)c1` [Example 121, 5-[1-(4-Chloro-2-trifluoromethyl-benzyl)-1H-indazol-5-ylmethylene]-2-(4-cyclopropyl-piperazin-1-yl)-thiazol-4-one], `O=C1N=C(N2CCCN(CCF)CC2)S/C1=C\c1ccc2c(cnn2Cc2ccc(Cl)cc2C(F)(F)F)c1` [Example 133, 5-[1-(4-Chloro-2-trifluoromethyl-benzyl)-1H-indazol-5-ylmethylene]-2-[4-(2-fluoro-ethyl)-[1,4]diazepan-1-yl]-thiazol-4-one] is 6.2-fold lower in EC50: 25.3 nM for the first, 4.1 nM for the second.

`CC[C@H]1CN(C2=NC(=O)/C(=C/c3ccc4c(cnn4Cc4ccc(C(F)(F)F)cc4C(F)(F)F)c3)S2)CCN1` [Example 124, 5-[1-(2,4-Bis-trifluoromethyl-benzyl)-1H-indazol-5-ylmethylene]-2-(3-ethyl-piperazin-1-yl)-thiazol-4-one] and `O=C1N=C(N2CCN[C@@H](CO)C2)S/C1=C\c1ccc2c(cnn2Cc2ccc(Cl)cc2C(F)(F)F)c1` [Example 132, 5-[1-(4-Chloro-2-trifluoromethyl-benzyl)-1H-indazol-5-ylmethylene]-2-(3-(R)-hydroxymethyl-piperazin-1-yl)-thiazol-4-one] are within 1.5-fold of each other in EC50: 9 nM for the first, 10.7 nM for the second.

First: O=C1N=C(N2CCCO2)S/C1=C\c1ccc2c(cnn2Cc2ccc(Cl)cc2C(F)(F)F)c1 [Example 126, 5-[1-(4-Chloro-2-trifluoromethyl-benzyl)-1H-indazol-5-ylmethylene]-2-isoxazolidin-2-yl-thiazol-4-one]
Second: CS(=O)(=O)N1CCCN(C2=NC(=O)/C(=C/c3ccc4c(cnn4Cc4ccc(Cl)cc4C(F)(F)F)c3)S2)CC1 [Example 134, 5-[1-(4-Chloro-2-trifluoromethyl-benzyl)-1H-indazol-5-ylmethylene]-2-(4-methanesulfonyl-[1,4]diazepan-1-yl)-thiazol-4-one]
The EC50 of the first is 4.8-fold higher: 24 nM for the first, 5 nM for the second. The second is the more potent here.

`CCOC(=O)N1CCCN(C2=NC(=O)/C(=C/c3ccc4c(cnn4Cc4ccc(Cl)cc4C(F)(F)F)c3)S2)CC1` [Example 128, 4-{5-[1-(4-Chloro-2-trifluoromethyl-benzyl)-1H-indazol-5-ylmethylene]-4-oxo-4,5-dihydro-thiazol-2-yl}-[1,4]diazepane-1-carboxylic acid ethyl ester] and `O=C1N=C(N2CCCN(C(=O)OCC(F)(F)F)CC2)S/C1=C\c1ccc2c(cnn2Cc2ccc(Cl)cc2C(F)(F)F)c1` [Example 136, 4-{5-[1-(4-Chloro-2-trifluoromethyl-benzyl)-1H-indazol-5-ylmethylene]-4-oxo-4,5-dihydro-thiazol-2-yl}[1,4]diazepane-1-carboxylic acid 2,2,2-trifluoro-ethyl ester] are within 1.5-fold of each other in EC50: 32 nM for the first, 34 nM for the second.

Going from `O=C(O)COC1CCN(C2=NC(=O)/C(=C/c3ccc4c(cnn4Cc4ccc(Cl)cc4C(F)(F)F)c3)S2)CC1` [Example 131] to `O=C1N=C(N2CCCN(CC(F)(F)F)CC2)S/C1=C\c1ccc2c(cnn2Cc2ccc(Cl)cc2C(F)(F)F)c1` [Example 135, 5-[1-(4-Chloro-2-trifluoromethyl-benzyl)-1H-indazol-5-ylmethylene]-2-[4-(2,2,2-trifluoro-ethyl)-[1,4]diazepan-1-yl]-thiazol-4-one], the EC50 rises from 7.8 nM to 52 nM (6.7-fold).
